Measured values published in US20180155344A1, “TRICYCLIC PIPERIDINE COMPOUNDS” (ACTELION PHARMACEUTICALS LTD, priority 2015, published 2018).

What follows are compounds tested against T1, human TPH1 (Homo sapiens, UniProt P17752) (assay: biochemical).
T1 sequence (P17752 1-444): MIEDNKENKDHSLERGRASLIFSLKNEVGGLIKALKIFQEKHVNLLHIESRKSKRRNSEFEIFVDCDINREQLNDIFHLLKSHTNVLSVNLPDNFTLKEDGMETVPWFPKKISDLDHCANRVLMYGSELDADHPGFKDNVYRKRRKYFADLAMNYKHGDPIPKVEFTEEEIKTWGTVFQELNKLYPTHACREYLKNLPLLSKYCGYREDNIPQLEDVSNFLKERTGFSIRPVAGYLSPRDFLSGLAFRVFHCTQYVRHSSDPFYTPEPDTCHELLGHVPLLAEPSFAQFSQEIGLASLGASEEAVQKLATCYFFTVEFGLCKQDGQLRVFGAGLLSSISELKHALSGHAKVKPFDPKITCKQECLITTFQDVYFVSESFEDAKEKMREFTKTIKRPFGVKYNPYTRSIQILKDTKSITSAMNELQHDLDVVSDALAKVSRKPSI
Procedure, shortened: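 Inhibition is derived from 5-hydroxy-L-tryptophan fluorescence (540 nm emission, 300 nm excitation) after perchloric acid stop, relative to DMSO vehicle. Recombinant full-length human enzyme (40-80 nM) reacts with 40 μM tryptophan plus 100 μM methyltetrahydropterin, pH 7.6 Tris/DTT/catalase, 15° C, 60 min.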

Compound	IC50
COc1ccc(C2c3c(nc4cc(Cl)ccn34)CCN2C(=O)COc2ccc3ccccc3c2)cc1OC[C@H](O)CO (stereo partly drawn) [Example 2.10.1, 1-(7-chloro-1-(3-((R)-2,3-dihydroxypropoxy)-4-methoxyphenyl)-3,4-dihydroimidazo[1,2-a:5,4-c′]dipyridin-2(1H)-yl)-2-(naphthalen-2-yloxy)ethan-1-one]	34 nM
COc1ccc(C2c3c(nc4cc(C(F)(F)F)ccn34)CCN2C(=O)COc2cnc3c(c2)ncn3C)cc1OC (centres unmarked) [Example 3.1.23]	382 nM
Cc1ccc(OCC(=O)N2CCc3nc4cc(C(F)(F)F)ccn4c3C2c2cccnc2F)cc1 (centres unmarked) [Example 3.2.3, 1-(1-(2-fluoropyridin-3-yl)-7-(trifluoromethyl)-3,4-dihydroimidazo[1,2-a:5,4-c′]dipyridin-2(1H)-yl)-2-(p-tolyloxy)ethan-1-one]	251 nM
COc1ccc(C2c3c(nc4ccccn34)CCN2C(=O)COc2ccc3ccccc3c2)cc1O (centres unmarked) [Example 1.9.1, 1-(1-(3-hydroxy-4-methoxyphenyl)-3,4-dihydroimidazo[1,2-a:5,4-c′]dipyridin-2(1H)-yl)-2-(naphthalen-2-yloxy)ethan-1-one]	230 nM
COc1ccc(C2c3c(nc4cc(C(F)(F)F)ccn34)CCN2C(=O)COc2ccc(C)cc2)cc1OC (centres unmarked) [Example 3.1.6, 1-(1-(3,4-dimethoxyphenyl)-7-(trifluoromethyl)-3,4-dihydroimidazo[1,2-a:5,4-c′]dipyridin-2(1H)-yl)-2-(p-tolyloxy)ethan-1-one]	71 nM
O=C(NC1CC1)c1ccc(OCC(=O)N2CCc3nc4ccccn4c3C2c2ccc(OC(F)(F)F)cc2F)c(Cl)n1 (centres unmarked) [Example 1.19.2, 6-chloro-N-cyclopropyl-5-(2-(1-(2-fluoro-4-(trifluoromethoxy)phenyl)-3,4-dihydroimidazo[1,2-a:5,4-c′]dipyridin-2(1H)-yl)-2-oxoethoxy)picolinamide]	18 nM
COc1ccc(C2c3c(nc4ccccn34)CCN2C(=O)COc2ccc3ccccc3c2Cl)cc1OC (centres unmarked) [Example 1.1.9, 2-((1-chloronaphthalen-2-yl)oxy)-1-(1-(3,4-dimethoxyphenyl)-3,4-dihydroimidazo[1,2-a:5,4-c′]dipyridin-2(1H)-yl)ethan-1-one]	8 nM
COc1ccc(C2c3c(nc4cc(Cl)ccn34)CCN2C(=O)COc2ccc(CN3CCOCC3)nc2Cl)cc1OC (centres unmarked) [Example 2.1.5, 1-(7-chloro-1-(3,4-dimethoxyphenyl)-3,4-dihydroimidazo[1,2-a:5,4-c′]dipyridin-2(1H)-yl)-2-((2-chloro-6-(morpholinomethyl)pyridin-3-yl)oxy)ethan-1-one]	316 nM
COc1ccc(C2c3c(nc4cc(Cl)ccn34)CCN2C(=O)COc2ccc3ccccc3c2)cc1OCCCO (centres unmarked) [Example 2.12.1, 1-(7-chloro-1-(3-(3-hydroxypropoxy)-4-methoxyphenyl)-3,4-dihydroimidazo[1,2-a:5,4-c′]dipyridin-2(1H)-yl)-2-(naphthalen-2-yloxy)ethan-1-one]	22 nM
CCc1ncccc1OCC(=O)N1CCc2nc3ccccn3c2C1c1ccc(Cl)cc1F (centres unmarked) [Example 1.4.2, 1-(1-(4-chloro-2-fluorophenyl)-3,4-dihydroimidazo[1,2-a:5,4-c′]dipyridin-2(1H)-yl)-2-((2-ethylpyridin-3-yl)oxy)ethan-1-one]	55 nM
COc1ccc(C2c3c(nc4ccccn34)CCN2C(=O)COc2cccc3ccccc23)cc1OC (centres unmarked) [Example 1.1.3, 1-(1-(3,4-dimethoxyphenyl)-3,4-dihydroimidazo[1,2-a:5,4-c′]dipyridin-2(1H)-yl)-2-(naphthalen-1-yloxy)ethan-1-one]	134 nM
CCc1cc(C)c(C(=O)NC)cc1OCC(=O)N1CCc2nc3ccccn3c2C1c1ccc(OC)c(OC)c1 (centres unmarked) [Example 1.1.12, 5-(2-(1-(3,4-dimethoxyphenyl)-3,4-dihydroimidazo[1,2-a:5,4-c′]dipyridin-2(1H)-yl)-2-oxoethoxy)-4-ethyl-N,2-dimethylbenzamide]	141 nM

Further lines, results first:

IC50	Compound
217 nM	COc1ccc(C2c3c(nc4cc(C(F)(F)F)ccn34)CCN2C(=O)COc2ccc3c(c2C)CCNC3)c(F)c1 (centres unmarked) [Example 3.3.5, 1-(1-(2-fluoro-4-methoxyphenyl)-7-(trifluoromethyl)-3,4-dihydroimidazo[1,2-a:5,4-c′]dipyridin-2(1H)-yl)-2-((5-methyl-1,2,3,4-tetrahydroisoquinolin-6-yl)oxy)ethan-1-one]
46 nM	COc1cc(C)c(C2c3c(nc4cc(C(F)(F)F)ccn34)CCN2C(=O)COc2ccc(CN3CCOCC3)cc2Cl)cn1 (centres unmarked) [Example 3.39.1, 2-(2-chloro-4-(morpholinomethyl)phenoxy)-1-(1-(6-methoxy-4-methylpyridin-3-yl)-7-(trifluoromethyl)-3,4-dihydroimidazo[1,2-a:5,4-c′]dipyridin-2(1H)-yl)ethan-1-one]
77 nM	O=C(COc1ccc(CN2CCOCC2)cc1Cl)N1CCc2nc3cc(C(F)(F)F)ccn3c2C1c1ccc(C(F)(F)F)cc1 (centres unmarked) [Example 3.28.2, 2-(2-chloro-4-(morpholinomethyl)phenoxy)-1-(7-(trifluoromethyl)-1-(4-(trifluoromethyl)phenyl)-3,4-dihydroimidazo[1,2-a:5,4-c′]dipyridin-2(1H)-yl)ethan-1-one]
74 nM	CS(=O)(=O)Nc1ccc(OCC(=O)N2CCc3nc4cc(F)ccn4c3C2c2ccc(Cl)cc2F)c(Cl)n1 (centres unmarked) [Example 14.1.1, N-(6-chloro-5-(2-(1-(4-chloro-2-fluorophenyl)-7-fluoro-3,4-dihydroimidazo[1,2-a:5,4-c′]dipyridin-2(1H)-yl)-2-oxoethoxy)pyridin-2-yl)methanesulfonamide]
50 nM	COc1ccc(C2c3c(nc4cc(C(F)(F)F)ccn34)CCN2C(=O)COc2ccc(CN3CCOCC3)cc2Cl)cn1 (centres unmarked) [Example 3.6.2, 2-(2-chloro-4-(morpholinomethyl)phenoxy)-1-(1-(6-methoxypyridin-3-yl)-7-(trifluoromethyl)-3,4-dihydroimidazo[1,2-a:5,4-c′]dipyridin-2(1H)-yl)ethan-1-one]
183 nM	COc1ccc(C2c3c(nc4ccc(C(F)(F)F)cn34)CCN2C(=O)COc2ccc3ccccc3c2)cc1OC (centres unmarked) [Example 12.1.1, 1-(1-(3,4-dimethoxyphenyl)-8-(trifluoromethyl)-3,4-dihydroimidazo[1,2-a:5,4-c′]dipyridin-2(1H)-yl)-2-(naphthalen-2-yloxy)ethan-1-one]
338 nM	Cn1nc(OCC(=O)N2CCc3nc4cc(C(F)(F)F)ccn4c3C2c2ccccc2F)c(Cl)c1C(F)(F)F (centres unmarked) [Example 3.35.3, 2-((4-chloro-1-methyl-5-(trifluoromethyl)-1H-pyrazol-3-yl)oxy)-1-(1-(2-fluorophenyl)-7-(trifluoromethyl)-3,4-dihydroimidazo[1,2-a:5,4-c′]dipyridin-2(1H)-yl)ethan-1-one]
31 nM	CCc1nc(NS(C)(=O)=O)ccc1OCC(=O)N1CCc2nc3cccnn3c2C1c1sc(C)nc1C (centres unmarked) [Example 16.5.1, N-(5-(2-(9-(2,4-dimethylthiazol-5-yl)-6,9-dihydropyrido[4′,3′:4,5]imidazo[1,2-b]pyridazin-8(7H)-yl)-2-oxoethoxy)-6-ethylpyridin-2-yl)methanesulfonamide]
429 nM	COc1ccc(C2c3c(nc4cc(C(F)(F)F)ccn34)CCN2C(=O)COc2cccnc2Cl)cc1 (centres unmarked) [Example 3.24.2, 2-((2-chloropyridin-3-yl)oxy)-1-(1-(4-methoxyphenyl)-7-(trifluoromethyl)-3,4-dihydroimidazo[1,2-a:5,4-c′]dipyridin-2(1H)-yl)ethan-1-one]
161 nM	Cc1ncc(C2c3c(nc4cc(C(F)(F)F)ccn34)CCN2C(=O)COc2ccc3ccccc3c2)cn1 (centres unmarked) [Example 3.53.1, 1-(1-(2-methylpyrimidin-5-yl)-7-(trifluoromethyl)-3,4-dihydroimidazo[1,2-a:5,4-c′]dipyridin-2(1H)-yl)-2-(naphthalen-2-yloxy)ethan-1-one]
51 nM	CCOc1ccc(C2c3c(nc4cc(C(F)(F)F)ccn34)CCN2C(=O)COc2ccc(CN3CCOCC3)c(C)c2C)cc1 (centres unmarked) [Example 3.25.3, 2-(2,3-dimethyl-4-(morpholinomethyl)phenoxy)-1-(1-(4-ethoxyphenyl)-7-(trifluoromethyl)-3,4-dihydroimidazo[1,2-a:5,4-c′]dipyridin-2(1H)-yl)ethan-1-one]
214 nM	O=C(COc1ccc(CN2CCOCC2)cc1Cl)N1CCc2nc3cc(C(F)(F)F)ccn3c2C1c1ncn2ccccc12 (centres unmarked) [Example 3.48.1, 2-(2-chloro-4-(morpholinomethyl)phenoxy)-1-(1-(imidazo[1,5-a]pyridin-1-yl)-7-(trifluoromethyl)-3,4-dihydroimidazo[1,2-a:5,4-c′]dipyridin-2(1H)-yl)ethan-1-one]
38 nM	COc1ccc(C2c3c(nc4ccc(-c5ccccc5)cn34)CCN2C(=O)COc2ccc3ccccc3c2)cc1OC (centres unmarked) [Example 8.1.1, 1-(1-(3,4-dimethoxyphenyl)-8-phenyl-3,4-dihydroimidazo[1,2-a:5,4-c′]dipyridin-2(1H)-yl)-2-(naphthalen-2-yloxy)ethan-1-one]
228 nM	COc1cccc(C2c3c(nc4cc(C(F)(F)F)ccn34)CCN2C(=O)COc2ccc3ccccc3c2)c1 (centres unmarked) [Example 3.32.1, 1-(1-(3-methoxyphenyl)-7-(trifluoromethyl)-3,4-dihydroimidazo[1,2-a:5,4-c′]dipyridin-2(1H)-yl)-2-(naphthalen-2-yloxy)ethan-1-one]
